Assay: Exposure in plasma and skin of diabetic mouse (db/db)
Type: in vivo
Conditions: for Total concentration in skin: day 8; for Total concentration in plasma, geo mean: day 8, 20 h after last treatment
Protocol: Upon scarification on day 8, 20 h after the last treatment, arterial blood samples were collected into EDTA citrate serum sample tubes for LC/MSMS based quantification of compound exposure.

Structure (SMILES): CC1=C(C#N)[C@@H](c2ccc(C#N)cc2S(C)(=O)=O)N(C)C(=O)N1c1cccc(C(F)(F)F)c1 [Example 5, (4 S)-4-[4-Cyano-2-(methylsulfonyl)phenyl]-3,6-dimethyl-2-oxo-1-[3-(trifluoromethyl)phenyl]-1,2,3,4-tetrahydropyrimidine-5-carbonitrile]
- Total concentration in skin (0.03 mg/kg BW o.d. p.o.): 0.01 µM
- Total concentration in plasma, geo mean (0.03 mg/kg BW o.d. p.o.): 0.0029 µM
- Total concentration in skin (0.1 mg/kg BW o.d. p.o.): 0.03 µM
- Total concentration in plasma, geo mean (0.1 mg/kg BW o.d. p.o.): 0.011 µM
- Total concentration in skin (0.3 mg/kg BW o.d. p.o.): 0.06 µM
- Total concentration in plasma, geo mean (0.3 mg/kg BW o.d. p.o.): 0.027 µM
- Total concentration in skin (1.0 mg/kg BW o.d. p.o.): 0.16 µM
- Total concentration in plasma, geo mean (1.0 mg/kg BW o.d. p.o.): 0.067 µM
- Total concentration in skin (3.0 mg/kg BW o.d. p.o.): 0.30 ± 0.06 µM
- Total concentration in plasma, geo mean (3.0 mg/kg BW o.d. p.o.): 0.13 µM
- Total concentration in skin (10.0 mg/kg BW o.d. p.o.): 0.54 µM
- Total concentration in plasma, geo mean (10.0 mg/kg BW o.d. p.o.): 0.17 µM
